Patent US20170355760A1, “METHODS FOR MODULATING THE GLYCOSYLATION PROFILE OF RECOMBINANT PROTEINS USING SUGARS” (AbbVie Inc., priority 2014, published 2017)

How the values were obtained:
Assay type in all cases: cell-based, Chinese Hamster
CHO cell line 1 [1] = test: Viable cell density and cell viability of shaker flask cultures (trypan blue exclusion, Cedex); conditions: for peak VCD compared to control: 50 mM supplementation; for cell viability profile: 1-50 mM supplementation; for cell growth compared to the unsupplemented control: sugar 1, 10, 25, 50 mM in basal media, shaker flask
Procedure: (§1) A recombinant Chinese Hamster Ovary (CHO) cell line (Cell Line 1) expressing a humanized monoclonal antibody (Antibody 1) was evaluated in shaker flask cultures. The cell line was of CHO DUX-B11 origin based on a dhfr (dihydrofolate reductase) expression system, and cultured in a chemically defined basal and chemically-defined feed media. Each of the respective cultures were supplemented with selected monosaccharides and oligosaccharides to evaluate for their potential impact on the resulting N-glycan oligosaccharide profile. All sugars were purchased from Sigma-Aldrich (St. Louis, Mo.), and dissolved at the concentrations referenced below in the cell culture media. Unless specified otherwise, all sugars evaluated were in their D-form. In preparation of the cultures, the cell lines were expanded through seed train inoculums to generate enough cells for inoculation.
Viable cell density (VCD) and cell viability values were measured through trypan blue exclusion via Cedex automated cell counters (Roche Applied Science, Indianapolis, Ind.). Initial viable cell density and viability in the cultures were targeted towards the same value. Immediately after inoculation, only a handful of each of the shake flasks were sampled for VCD and viability, and the results were averaged. All Day 0 values amongst these flasks were thus reported to be at this average. The cultures were harvested on Process Days 9-10, or when cell viability dropped below 50%, whichever occurred first.

[2] = tested on: Cell Line 1 expressing a humanized monoclonal antibody (Antibody 1); test: N-glycan oligosaccharide profiling of Protein A purified antibody (reduced heavy chain, RP-HPLC/Q-TOF MS); conditions: for redirecting the N-glycan glycoform profile: 250 mL shaker flask cultures, defined supplementation range
Procedure: as §1
Purified antibodies subjected to additional analytical characterization were purified using MabSelect™ Protein A (GE Healthcare, Piscataway, N.J.) using a low pH, step elution gradient, followed by neutralization, and subsequently buffer exchanged when necessary using Amicon centrifugal filters (EMD Millipore, Billerica, Mass.) according to the manufacturer's recommended procedure.
The heavy chain of adalimumab was analyzed using an HPLC (Agilent 1260, Santa Clara, Calif.) with a reversed phase column (Vydac, C4, 1×150 mm, 5μ particle size) coupled to a Q-TOF mass spectrometer (Agilent, 6510). Protein A purified samples from cell culture harvests were first reduced using DTT at 37° C. for 30 minutes. The samples were then loaded using 95% mobile phase A (0.08% formic acid and 0.02% TFA in water) and 5% mobile phase B (0.08% formic acid and 0.02% TFA in acetonitrile), and then eluted using a gradient of increasing levels of mobile phase B. The flow rate was 50 μL/min and the column temperature was set to 60° C. The mass spectrometer was operated in positive ion mode with an ion spray voltage of 4500 volts and a source temperature of 350° C. Resolved peaks centered on the known masses of different N-glycans was subsequently used to identify the different types of N-glycans, and the relative peak heights were used to quantitate their respective levels.

CHO cell line 1 [3] = test: Harvest antibody titer (Poros A Protein A affinity HPLC); conditions: for harvest titer compared to unsupplemented control: 1-50 mM supplementation
Procedure: as §1
Antibody titers were measured from crude cell culture harvests on a Poros A™ (Life Technologies, Carlsbad, Calif.) affinity column using an Agilent (Santa Clara, Calif.) 1200 Series HPLC, or equivalent, operating with a low pH, step elution gradient with detection at 280 nm. Absolute concentrations were assigned with respect to reference standard calibration curves.

[4] = 1-50 mM vs unsupplemented control
[5] = the higher concentrations evaluated
[6] = each of the concentrations evaluated (1-50 mM)
[7] = across all supplemented concentrations (1-50 mM)

SMILES | peak VCD compared to control (CHO cell line 1 [1]) | cell viability profile (CHO cell line 1 [1]) | cell growth compared to the unsupplemented control (CHO cell line 1 [1]) | G0F N-glycan levels [2, 4] | N-glycan oligosaccharide profile change upon supplementation [2, 4] | redirecting the N-glycan glycoform profile [2] | harvest titer compared to unsupplemented control (CHO cell line 1 [3]) | further results
OC[C@H]1O[C@@H](O[C@@H]2[C@@H](CO)OC(O)(CO)[C@H]2O)[C@H](O)[C@@H](O)[C@H]1O (mixture of isomers) [lactulose] | drop in VCD | no adverse impact | only the 50 mM level of this sugar had a slightly adverse impact to cell growth performance | approximately equal drop | lactulose dependent increase in Man5, G0F-GlcNAc, and G1F N-glycans | toward the high mannose type | only nominally impacted | harvest titer ratio (CHO cell line 1 [3]; 50 mM): 0.89
OC[C@H]1O[C@@H](O[C@H]2[C@H](O)[C@@H](O)C(O)O[C@@H]2CO)[C@H](O)[C@@H](O)[C@H]1O (stereo partly drawn) [lactose] | noticeably lower than the control | no adverse impact | no adverse impact towards cell growth performance | almost equal drop |  | toward the complex, galactosylated type | small decrease in harvest titers | increase in G1F species ([2]; at most, across 1-50 mM): ≤ 4%; increase in G2F species ([2]; at most, across 1-50 mM): ≤ 2%; relative harvest titer (CHO cell line 1 [3]; 1 mM (lowest across tested concentrations)): 0.87
OC[C@H]1O[C@@](CO)(O[C@H]2O[C@H](CO)[C@@H](O)[C@H](O)[C@H]2O)[C@@H](O[C@H]2O[C@H](CO)[C@@H](O)[C@H](O)[C@H]2O)[C@@H]1O [melezitose] | drop in peak VCD | no adverse impact | only the 50 mM condition had an adverse impact on cell growth |  | largest % impact on the protein glycosylation profile | toward the complex, galactosylated type | nominally reduce the harvest titer | increase in G1F ([2]; 1 mM): 1%; increase in G1F ([2]; 10 mM): 9%; increase in G1F ([2]; 25 mM): 20%; increase in G1F ([2]; 50 mM): 28%; G0 type glycans [2, 4]: almost equal drop in relative value; G2 N-glycan change [2, 4]: mirrored these results, albeit at a much lower overall percent change; Man5 levels ([2]; all tested concentrations): Reduced levels; harvest titer ratio (CHO cell line 1 [3]; 10 mM (lowest result observed)): 0.82
OC[C@H]1O[C@H](OC[C@H]2OC(O)(CO)[C@@H](O)[C@@H]2O)[C@H](O)[C@@H](O)[C@@H]1O (stereo partly drawn) [palatinose] |  | reasonably consistent with each other | only the lowest concentration (1 mM) supported a cell growth profile that closely approximated that of the unsupplemented control | significant decrease | increase Man5, G0F-GlcNAc, G1F, and G2F N-glycans in a palatinose concentration-dependent manner | toward the high mannose type | slightly less antibody product | peak VCD compared to the unsupplemented control (CHO cell line 1 [1]; [5]): lower peak viable cell densities
O=C(CO)[C@H](O)[C@H](O)[C@H](O)CO [psicose] |  | no significant changes |  | dropped in an almost equal fashion | increase Man5, G0F-GlcNAc, and G1F species in a psicose concentration-dependent manner | toward the high mannose type | slightly lower compared to the control | peak VCD compared to the unsupplemented control (CHO cell line 1 [1]; [6]): lower peak VCD; harvest titer ratio (CHO cell line 1 [3]; [7]): > 0.88
OC[C@H]1O[C@H](OC[C@H]2O[C@H](O[C@]3(CO)O[C@H](CO)[C@@H](O)[C@@H]3O)[C@H](O)[C@@H](O)[C@@H]2O)[C@H](O)[C@@H](O)[C@H]1O [raffinose] |  | closely approximated each other | comparable to the unsupplemented control up to a raffinose concentration of 10 mM |  |  | toward the high mannose type | closely approximated each other | peak VCD compared to the unsupplemented control (CHO cell line 1 [1]; [5]): lower than that of the unsupplemented control; increase in Man5, G0F-GlcNAc, and G1F compared to the unsupplemented control ([2]; concentration-dependent, 1-50 mM): > 2%
OC[C@H]1O[C@H](O[C@H]2O[C@H](CO)[C@@H](O)[C@H](O)[C@H]2O)[C@H](O)[C@@H](O)[C@@H]1O [trehalose] |  | not affected |  | significant decrease | more Man5 and G0F-GlcNAc levels | toward the high mannose type | slightly lower values | peak VCD compared to the unsupplemented control (CHO cell line 1 [1]; [6]): lower peak VCD; harvest titer ratio (CHO cell line 1 [3]; [7]): > 0.85
O=C(CO)[C@@H](O[C@H]1O[C@H](CO)[C@@H](O)[C@H](O)[C@H]1O)[C@H](O)[C@H](O)CO [turanose] | small nominal drop | did not show a very significant adverse impact | did not show a very significant adverse impact towards cell growth |  | increase of G1F and G2F species, which came at the expense of the G0F and G0F-GlcNAc species | toward the complex, galactosylated type | small drop in harvest titer | increase in G1F ([2]; 1 mM): 0.2%; increase in G2F ([2]; 10 mM): 3%; increase in G2F ([2]; 25 mM): 7%; increase in G1F ([2]; 50 mM): 14%; drop in harvest titer (CHO cell line 1 [3]; 50 mM (largest drop)): 10%
